Experiments:
Type in all cases: functional, cell-based
[1] = Antiproliferative activity against human prostate cancer PPC-1 cell line by sulforhodamine B assay
PC-3 = assay: Antiproliferative activity against human prostate cancer PC-3 cell line by sulforhodamine B assay
[2] = Antiproliferative activity against human prostate cancer TSU-Pr1 cell line by sulforhodamine B assay
LNCaP = assay: Antiproliferative activity against human prostate cancer LNCaP cell line by sulforhodamine B assay
DU-145 = assay: Antiproliferative activity against human prostate cancer DU-145 cell line by sulforhodamine B assay

IC50 (PC-3) [µM] | IC50 (LNCaP) [µM] | IC50 (DU-145) [µM] | SMILES | IC50 [1] [µM] | IC50 [2] [µM]
> 20 | 6.1 | > 20 | CCCCCCCCCCCCCCCCCCNC(=O)[C@@H]1CSC(c2ccc(OCC)cc2)N1 (stereo not given in full) | 4.4 | > 20
> 20 | > 20 | > 20 | CCCCCCCCCCCCCCCCCCNC(=O)[C@H]1NC(c2ccc(N(C)C)cc2)SC1(C)C (stereo not given in full) | > 20 | > 20
6.7 | 1.7 | 5.7 | CCCCCCCCCCCCCCCCCCNC(=O)[C@@H]1CSC(c2cccc(O)c2)N1 (stereo not given in full) | 1.2 | 4
10.6 | 2.4 | 7.3 | CCCCCCCCCCCCCCCCCCNC(=O)[C@@H]1CSC(c2c(OC)cc(OC)cc2OC)N1 (stereo not given in full) | 0.83 | 6.1
4 | 0.82 | 3.9 | CCCCCCCCCCCCCCCCCCNC(=O)[C@@H]1CSC(c2cc(OC)c(OC)c(OC)c2)N1 (stereo not given in full) | 0.48 | 2.4
> 20 | > 20 | > 20 | CCCCCCCCCCCCCCCCCCNC(=O)[C@H]1NC(c2cc(OC)c(OC)c(OC)c2)SC1(C)C (stereo not given in full) | 18.8 | > 20
> 20 | 8.7 | > 20 | CCCCCCCCN(CCCCCCCC)C(=O)[C@@H]1CSC(c2cc(OC)c(OC)c(OC)c2)N1 (stereo not given in full) | 14.1 | > 20
6 | 1.6 | 5.3 | CCCCCCCCCCCCCCCCCCNC(=O)[C@@H]1CSC(c2ccc(N(C)C)cc2)N1 (stereo not given in full) | 1.1 | 3
5.3 | 1.6 | 3.1 | CCCCCCCCCCCCCCCCCCNC(=O)[C@@H]1CSC(c2ccc(O)cc2)N1 (stereo not given in full) | 0.82 | 3
19 | 2.1 | 8.7 | CCCCCCCCCCCCCCCCCCNC(=O)[C@@H]1CSC(c2ccc(OC)cc2)N1 (stereo not given in full) | 1.5 | 19.6
